Experiment: Agilent ZORBAX 300 SB-C18, 150 × 1 mm, 3.5 µm; A: water + 0.01% heptafluorobutyric acid; B: acetonitrile + 0.01% heptafluorobutyric acid; gradient (min/%B) 0/0 100/90
Conditions: stereoisomer not certain

Structure (SMILES)	LC retention time [min]
c1cncc(-c2ncc[nH]2)c1	6.65
Cc1nc2c(ccc3[nH]c(C)nc32)[nH]1	7.32
COc1ccc2c(c1C)CCC1=C(C)C(=O)CCC12C (stereo not drawn)	17
CCC1NC(=O)NC(C)=C1C(C)=O (stereo not drawn)	7.34
N=C(N)SCCSCCSC(=N)N	7.21
Cc1ccccc1-n1nnnc1-c1ccc(-c2nnnn2-c2ccccc2C)cc1	15.3
S=C(Nc1ccccn1)NC1CCCCC1	10.7
NCc1ccc2ncccc2c1	7.05
CCN1CCCCC1	6.52
CC(=O)NC1CCC2C3CC=C4CC(OC(C)=O)CCC4(C)C3CCC12C (stereo not drawn)	16.7
CCN(CC)c1ccc(CCN)cc1	8.39
CC1CCCCN1C(=O)c1cncc(C(=O)N2CCCCC2C)c1 (stereo not drawn)	11.3
CN1CCN(C)CC1	6.13
CC(=O)NCC(NC(C)=O)C(C)(C)C (stereo not drawn)	7.28
Cn1c(C(C)(C)C)nc(N)nc1=O	7.21
Cc1ccc(CN2CCN(N=Cc3ccco3)CC2)cc1	9.55
CCN(C(C)C)C(C)C	7.51
CC(C)N1CCNCC1	6.94
CN1C(=O)C(CCC(N)=O)NC1=S (stereo not drawn)	6.53
Cc1ccc(NC(=S)NN=C2CCN(C(C)C)CC2)cc1	9.64
Cc1ccc2c(c1)C1CN(C)CCC1N2C(=O)CN1CCCCC1 (stereo not drawn)	7.91

Structure (SMILES)	LC retention time [min]
COc1cc(C)c(NC(C)=O)c(C)c1	8.85
Cc1[nH]c2c(c1C)C(=O)CCC2	8.94
C1CCC(OCCN2CCN(CCOC3CCCCC3)CC2)CC1	10.9
CCCCCCN1CNC(=S)NC1	9.89
CC1=Nc2ccccc2Sc2ccccc21	14.5
C[N+]12CCC(CC1)C1CC(O)CCC12 (stereo not drawn)	6.39
Cc1[nH]c2c(C)ccc(C)c2c1CCN	9.21
CCCCC[N+]1(C)CCCC1	7.4
C1CCC(NC2CCCCC2)CC1	9.69
CC(C)(N)CO	4.39
CN(C)c1ccncc1	7.29
COc1ccc(C=NCCC2=CCCCC2)cc1OC	10
CC(C)CC(NC(=O)CN)C(=O)O (stereo not drawn)	7.75
C=CCNC1CCCCC1	7.93
Cc1nnc(NN=Cc2ccc(N(C)C)cc2)[nH]c1=O	9.86
O=C(Cc1cccc2ccccc12)N1CCN(Cc2ccccc2)CC1	10.4
C=C(C)C1CCC2=CC(=O)CC(C)C2(C)C1 (stereo not drawn)	17.1
Cc1cc(N)c(N)cc1C	7.98
Nc1nc(N)nc(N)n1	4.25
Cc1[nH]c(C)c(C=O)c1C=O	7.42
Cc1cc(C=O)c(C)n1C(C)C	11.1

Structure (SMILES)	LC retention time [min]
c1cn[nH]c1	6.84
CN(C)C=CC=O	5.98
Cc1cc2n[nH]nc2cc1C	9.69
Oc1ccc2c3c1OC1C(O)CCC4(O)C(C2)N(CC2CCC2)CCC314 (stereo not drawn)	8.75
NCCCNCCN	7.42
NCCN1CCCCC1	6.98
C#Cc1cncn1C	6.39
c1ccc(Cn2c3ccccc3n3c(Nc4ccccc4)nnc23)cc1	12.7
COC(=O)C(N)CO (stereo not drawn)	4
COc1ccc(N)c(C)c1C	8.59
S=c1nc(C2CCCCC2)[nH][nH]1	8.76
NCCCCCCNCCCCCCN	7.37
CNc1ccccc1	7.27
Cc1cc(C)c2[nH]c3c(c2c1)CCCC3=O	14.8
C1=Nc2ccccc2C(c2ccccc2)C1c1ccc2ccccc2n1 (stereo not drawn)	11.8
O=C(O)c1cc(N2CCCC2=O)cc(N2CCCC2=O)c1	8.34
C=Cn1ccnc1	6.3
C=CCC1(Nc2ccccc2)CCCCC1	11.3
COc1ccc(C=CC(C)=O)cc1	12

Second part, the compound after the results:

LC retention time [min]	Structure (SMILES)
7.87	Nc1ccc(C(=O)NC=C2CCCC2)cc1
17.6	CC(C)c1cccc(C(C)C)c1NC(=O)COC(=O)CNC(=O)c1ccc(C(C)(C)C)cc1
6.92	CC(=O)Nc1cccc2ncccc12
15.6	CCCCc1ccc(NC(=O)Cc2ccc(OC)c(OC)c2)cc1
8.46	Cc1ccccc1C(=O)NC1CC(C)(C)NC(C)(C)C1
8.65	c1coc(C2NCCc3ccccc32)c1 (stereo not drawn)
15.1	Cc1ccc(C(=O)Nc2ccc3[nH]c4c(c3c2)CCCC4)cc1
14.3	COc1cccc(C(=O)N(c2ccccc2)C2CC(C)N(C(C)=O)c3ccccc32)c1 (stereo not drawn)
6.38	OCc1cccnc1-c1ncccc1CO
12.5	CCOC(=O)c1[nH]c(C)cc1C
9.65	O=C(NN=Cc1ccco1)c1ccccc1
13.5	CCn1c2ccccc2c2cc(C(=O)O)ccc21
13.2	CC(=O)Oc1ccc(C(=O)N2CCc3ccccc32)cc1
11.9	Cc1cc(O)c(C(C)C)cc1NC(=O)Cn1nc(C)c2ccccc2c1=O
11.3	COc1cc(CNC(=O)Nc2ccccc2)cc(OC)c1OC
12.2	O=c1cc(Nc2ccccc2)c2ccccc2o1
11.1	COc1cc(OC)c2cc[nH]c2c1
1.45	Nc1cccc(S(=O)(=O)O)c1
12.2	O=C(C=Cc1cccc(O)c1)c1ccccc1O
8.52	CC1(C)CC(=O)C=C(NCC2NCCc3ccccc32)C1 (stereo not drawn)
7.64	CNCCCn1c(=O)[nH]c2ccccc21
18.1	CCCCc1ccc(-n2c(CCC(=O)O)ccc2-c2ccccc2)cc1
10.1	COc1ccc(CN(CCN(C)C)c2ccccn2)cc1
7.72	Cc1nn(CC(=O)NCCO)c(=O)c2ccccc12

LC retention time [min]	Structure (SMILES)
13	Cc1ccc(C)n1-c1ccc(C(=O)O)cc1
15.9	CCOC(=O)C(Cc1ccccc1)n1cccc1 (stereo not drawn)
8.75	CC(C)NCC(O)COc1cccc2[nH]ccc12 (stereo not drawn)
8.16	COc1ccccc1OCCN1CCNCC1
11.2	O=C(c1ccccc1)c1nc2ccccc2[nH]c1=O
10.7	Cc1ccccc1C=NNC(N)=S
5.96	O=C(O)c1c2c(nc3ccccc13)CCCC2
6.01	CCCc1cc(C(=O)O)ccn1
6.84	Nc1ncnc2ccccc12
10.7	COC(=O)Cn1c(=O)c2ccccc2n(CC(=O)OC)c1=O
14	CCCNC(=O)Nc1ccc2c(c1)oc1ccccc12
10.9	Cc1nc2c(ccc3ccccc32)c(C)c1C
20.7	COC(=O)c1ccccc1NCc1ccccc1CNc1ccccc1C(=O)OC
17.8	Cc1cccc(C(=O)N2CCc3c([nH]c4ccccc34)C2c2ccccc2)c1 (stereo not drawn)
16.1	Cc1ccc(C=CC(=O)c2ccccc2O)cc1
9.54	CCN(CC)c1cc(C)c2ccccc2n1
10.2	O=C(NN=Cc1ccc(O)c(O)c1)c1ccc(NC(=O)c2ccccc2)cc1
6.6	O=C(O)C1CCCN1Cc1ccccc1 (stereo not drawn)
12.2	CCCCn1c2ccccc2n2cc(C(C)(C)C)nc12
7.83	Cc1ccccc1CN
13.9	COc1ccccc1CC(=O)Nc1cccc(C)c1
11.2	CC(C)(C)c1ccc(C(=O)Nc2ccc(N)cc2)cc1
8.83	CCN(CC)CCOc1ccccc1OC
7.61	OCCCCNCc1ccccc1

LC retention time [min]	Structure (SMILES)
17.5	CCn1c2ccccc2c2ccccc21
11.5	CC(C)(C(=O)O)c1ccc(C(O)CCCN2CCC(C(O)(c3ccccc3)c3ccccc3)CC2)cc1 (stereo not drawn)
10.5	NC(=O)c1ccccc1NC(=O)c1cc2c(n(-c3ccccc3)c1=O)CCCC2=O
6.43	Cc1ccc(C(=O)O)c(=O)[nH]1
11.7	CCOc1nc(N(c2ccccc2)c2ccccc2)[nH]c(=O)n1
9.89	CC(CCc1ccccc1)NCc1ccco1 (stereo not drawn)
17	COc1ccc(-c2cc(=O)c3c(ccc4ccccc43)o2)cc1
9.8	CNC(=O)c1cc2c(n(-c3ccccc3)c1=O)CCCC2=O
13.2	CC(=O)c1ccc(-n2cccc2)cc1
16.3	c1ccc(Sc2ccc3ccccc3n2)cc1
8.42	Cc1cc(=O)[nH]c2c(C)c(N)ccc12
8.14	O=C(Nc1cccnc1)c1ccccn1
12.9	CCCCNC(=O)c1c[nH]c2ccccc2c1=O
12.8	CCCCc1c(O)n(-c2ccc(O)cc2)n(-c2ccccc2)c1=O
11.9	Cc1nc2ccccc2nc1CN1C(=O)C2CC=CCC2C1=O (stereo not drawn)
8.44	CC1(C)CC(=O)C2=C(C1)NCN(Cc1ccccc1)C2
10.5	Nc1ccc2c(c1)COc1ccccc1O2
7.26	NC(=O)Nc1ccccc1
14.3	CC1CCCCN1C(=S)NCc1ccccc1 (stereo not drawn)
7.1	CC1=NCC(=O)N1c1cccc(N)c1
18.4	CCc1ccc(C(=O)CC(Nc2ccccc2)c2ccccc2)cc1 (stereo not drawn)
15.1	Cc1ccc(C(=O)C=Cc2ccco2)cc1
8.46	OCc1ccc2cc[nH]c2c1
13.3	COc1cccc(OC)c1OCc1nc2ccccc2nc1C

— the RepoRT retention time repository
